Results from the supplement of paper PMC10307832.

Key:
Assay in all cases: relative viability (nuclei count vs DMSO), 5 days (fraction); higher = more cells survive
NCI-H1793 = system: NCI-H1793
Summary of the method: (§1)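 Relative viability divides the nuclei count in treated wells by that in vehicle wells. Lung cancer cell lines were seeded in 1536-well plates, dosed by pin tool the next day, and fixed and stained after 5 days in one step with final 0.05% Triton X-100, 1% formaldehyde and 1 ug/ml Hoechst. Dosing was a single drug or a fixed anchor-drug dose plus five library-drug doses (not always all listed) in √10 steps, and values are medians of duplicate plates imaged at 4×.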

NCI-H838 = system: NCI-H838
Summary of the method: as §1

NCI-H520 = system: NCI-H520
Summary of the method: as §1

NCI-H23 = system: NCI-H23
Summary of the method: as §1

LU99A = system: LU99A
Summary of the method: as §1

NCI-H2228 = system: NCI-H2228
Summary of the method: as §1

PC-3 [JPC-3] = system: PC-3 [JPC-3]
Summary of the method: as §1

BEN = system: BEN
Summary of the method: as §1

NCI-H2347 = system: NCI-H2347
Summary of the method: as §1

NCI-H460 = system: NCI-H460
Summary of the method: as §1

RERF-LC-KJ = system: RERF-LC-KJ
Summary of the method: as §1

LOU-NH91 = system: LOU-NH91
Summary of the method: as §1

EKVX = system: EKVX
Summary of the method: as §1

NCI-H1355 = system: NCI-H1355
Summary of the method: as §1

LC-2-ad = system: LC-2-ad
Summary of the method: as §1

A-427 = system: A-427
Summary of the method: as §1

LCLC-97TM1 = system: LCLC-97TM1
Summary of the method: as §1

NCI-H650 = system: NCI-H650
Summary of the method: as §1

NCI-H1666 = system: NCI-H1666
Summary of the method: as §1

NCI-H1993 = system: NCI-H1993
Summary of the method: as §1

SW 1573 = system: SW 1573
Summary of the method: as §1

NCI-H1915 = system: NCI-H1915
Summary of the method: as §1

Cc1cnc(-c2cnc(NCCNc3ccc(C#N)cn3)nc2-c2ccc(Cl)cc2Cl)[nH]1 + Cc1nc(NC(=O)N2CCC[C@H]2C(N)=O)sc1-c1ccnc(C(C)(C)C(F)(F)F)c1 [Alpelisib] (partner 2 µM)
relative viability (NCI-H1793; first compound 0.08 µM): 0.838
relative viability (NCI-H1793; first compound 0.253 µM): 0.618
relative viability (NCI-H1793; first compound 0.8 µM): 0.973
relative viability (NCI-H1793; first compound 2.53 µM): 1.08
relative viability (NCI-H838; first compound 0.08 µM): 1.06
relative viability (NCI-H838; first compound 0.253 µM): 0.951
relative viability (NCI-H838; first compound 0.8 µM): 1.18
relative viability (NCI-H838; first compound 2.53 µM): 1.41
relative viability (NCI-H520; first compound 0.08 µM): 0.926
relative viability (NCI-H520; first compound 0.253 µM): 0.791
relative viability (NCI-H520; first compound 0.8 µM): 1.11
relative viability (NCI-H520; first compound 2.53 µM): 1.04
relative viability (NCI-H23; first compound 0.08 µM): 0.819
relative viability (NCI-H23; first compound 0.253 µM): 0.591
relative viability (NCI-H23; first compound 0.8 µM): 0.818
relative viability (NCI-H23; first compound 2.53 µM): 0.72
relative viability (LU99A; first compound 0.08 µM): 0.606
relative viability (LU99A; first compound 0.253 µM): 0.548
relative viability (LU99A; first compound 0.8 µM): 0.557
relative viability (LU99A; first compound 2.53 µM): 0.516
relative viability (NCI-H2228; first compound 0.08 µM): 0.931
relative viability (NCI-H2228; first compound 0.253 µM): 0.7
relative viability (NCI-H2228; first compound 0.8 µM): 0.987
relative viability (NCI-H2228; first compound 2.53 µM): 0.717
relative viability (PC-3 [JPC-3]; first compound 0.08 µM): 1
relative viability (PC-3 [JPC-3]; first compound 0.253 µM): 0.934
relative viability (PC-3 [JPC-3]; first compound 0.8 µM): 1.02
relative viability (PC-3 [JPC-3]; first compound 2.53 µM): 1.01
relative viability (BEN; first compound 0.08 µM): 1.22
relative viability (BEN; first compound 0.253 µM): 0.973
relative viability (BEN; first compound 0.8 µM): 0.964
relative viability (BEN; first compound 2.53 µM): 1.04
relative viability (NCI-H2347; first compound 0.08 µM): 1.08
relative viability (NCI-H2347; first compound 0.253 µM): 0.812
relative viability (NCI-H2347; first compound 0.8 µM): 1.15
relative viability (NCI-H2347; first compound 2.53 µM): 1.01
relative viability (NCI-H460; first compound 0.08 µM): 0.552
relative viability (NCI-H460; first compound 0.253 µM): 0.475
relative viability (NCI-H460; first compound 0.8 µM): 0.61
relative viability (NCI-H460; first compound 2.53 µM): 0.68
relative viability (RERF-LC-KJ; first compound 0.08 µM): 0.984
relative viability (RERF-LC-KJ; first compound 0.253 µM): 0.746
relative viability (RERF-LC-KJ; first compound 0.8 µM): 0.775
relative viability (RERF-LC-KJ; first compound 2.53 µM): 0.916
relative viability (LOU-NH91; first compound 0.08 µM): 0.852
relative viability (LOU-NH91; first compound 0.253 µM): 0.729
relative viability (LOU-NH91; first compound 0.8 µM): 0.675
relative viability (LOU-NH91; first compound 2.53 µM): 0.715
relative viability (EKVX; first compound 0.08 µM): 1.04
relative viability (EKVX; first compound 0.253 µM): 0.739
relative viability (EKVX; first compound 0.8 µM): 0.839
relative viability (EKVX; first compound 2.53 µM): 0.766
relative viability (NCI-H1355; first compound 0.08 µM): 0.801
relative viability (NCI-H1355; first compound 0.253 µM): 0.752
relative viability (NCI-H1355; first compound 0.8 µM): 0.786
relative viability (NCI-H1355; first compound 2.53 µM): 0.783
relative viability (LC-2-ad; first compound 0.08 µM): 1.04
relative viability (LC-2-ad; first compound 0.8 µM): 0.832
relative viability (LC-2-ad; first compound 2.53 µM): 0.892
relative viability (A-427; first compound 0.08 µM): 1.1
relative viability (A-427; first compound 0.253 µM): 1.05
relative viability (A-427; first compound 0.8 µM): 1.07
relative viability (A-427; first compound 2.53 µM): 1.06
relative viability (LCLC-97TM1; first compound 0.08 µM): 0.28
relative viability (LCLC-97TM1; first compound 0.253 µM): 0.176
relative viability (LCLC-97TM1; first compound 0.8 µM): 0.251
relative viability (LCLC-97TM1; first compound 2.53 µM): 0.323
relative viability (NCI-H650; first compound 0.08 µM): 1.07
relative viability (NCI-H650; first compound 0.253 µM): 1.06
relative viability (NCI-H650; first compound 0.8 µM): 1.17
relative viability (NCI-H650; first compound 2.53 µM): 1.11
relative viability (NCI-H1666; first compound 0.08 µM): 1
relative viability (NCI-H1666; first compound 0.253 µM): 0.919
relative viability (NCI-H1666; first compound 0.8 µM): 0.831
relative viability (NCI-H1666; first compound 2.53 µM): 1.07
relative viability (NCI-H1993; first compound 0.08 µM): 0.715
relative viability (NCI-H1993; first compound 0.253 µM): 0.72
relative viability (NCI-H1993; first compound 0.8 µM): 0.683
relative viability (NCI-H1993; first compound 2.53 µM): 0.694
relative viability (SW 1573; first compound 0.08 µM): 0.822
relative viability (SW 1573; first compound 0.253 µM): 0.765
relative viability (SW 1573; first compound 0.8 µM): 0.748
relative viability (SW 1573; first compound 2.53 µM): 0.515
relative viability (NCI-H1915; first compound 0.08 µM): 1.08
relative viability (NCI-H1915; first compound 0.8 µM): 1.09
relative viability (NCI-H1915; first compound 2.53 µM): 1.01
